# ChEMBL document CHEMBL3885881, “DrugMatrix”
# Species: Rattus norvegicus
# Experiment: DrugMatrix - Regimen: Daily Repeat
# Format: toxicity, organism-based, Sprague-Dawley
# Set-up: regimen Daily Repeat, gender Male, age 6-8 weeks
# Settings: in vivo, po, route oral GAVAGE, vehicle .5 % CMC; for ABSOLUTE BASOPHIL / ABSOLUTE EOSINOPHIL / ABSOLUTE LYMPHOCYTE / ABSOLUTE MONOCYTE / ABSOLUTE SEGMENTED NEUTROPHIL / BASOPHIL / EOSINOPHIL / ERYTHROCYTE COUNT / HEMATOCRIT / HEMOGLOBIN / LEUKOCYTE COUNT / LYMPHOCYTE / MEAN CORPUSCULAR HEMOGLOBIN / MEAN CORPUSCULAR HEMOGLOBIN CONCENTRATION / MEAN CORPUSCULAR VOLUME / MONOCYTE / NEUTROPHIL / NUCLEATED RED BLOOD CELLS / PLATELET COUNT: tissue Blood; for ALANINE AMINOTRANSFERASE / ALBUMIN / ALKALINE PHOSPHATASE / ASPARTATE AMINOTRANSFERASE / BLOOD UREA NITROGEN / CARBON DIOXIDE / CHLORIDE / CHOLESTEROL / CREATINE PHOSPHOKINASE / CREATININE / GLUCOSE / LACTATE DEHYDROGENASE / LIPASE / PHOSPHORUS / POTASSIUM / SODIUM / TOTAL BILIRUBIN / TOTAL PROTEIN / URIC ACID: tissue Plasma
# [1] = 50 mg/kg, 120 h, dose level Low, time 5 day
# [2] = 500 mg/kg, 72 h, dose level High, time 3 day
# [3] = 500 mg/kg, 120 h, dose level High, time 5 day
smiles,measurement,setting,value
CC1(C)[C@H]2CC[C@]1(C)C(=O)C2 [(-)-CAMPHOR],ABSOLUTE BASOPHIL,[1],0 CELLS/uL
same,ABSOLUTE EOSINOPHIL,[1],46.67 CELLS/uL
same,ABSOLUTE LYMPHOCYTE,[1],13460 CELLS/uL
same,ABSOLUTE MONOCYTE,[1],0 CELLS/uL
same,ABSOLUTE SEGMENTED NEUTROPHIL,[1],2360 CELLS/uL
same,BASOPHIL,[1],0%
same,EOSINOPHIL,[1],0.33%
same,ERYTHROCYTE COUNT,[1],5.24 x10E6/uL
same,HEMATOCRIT,[1],32.6%
same,HEMOGLOBIN,[1],12.5 G/DL
same,LEUKOCYTE COUNT,[1],15.87 x10E3/uL
same,LYMPHOCYTE,[1],86.33%
same,MEAN CORPUSCULAR HEMOGLOBIN,[1],23.9 pg
same,MEAN CORPUSCULAR HEMOGLOBIN CONCENTRATION,[1],38.33 G/DL
same,MEAN CORPUSCULAR VOLUME,[1],62.27 fL
same,MONOCYTE,[1],0%
same,NEUTROPHIL,[1],13.33%
same,NUCLEATED RED BLOOD CELLS,[1],0 /100WBC
same,PLATELET COUNT,[1],1253.67 x10E3/uL
same,ALANINE AMINOTRANSFERASE,[1],61.33 u/L
same,ALBUMIN,[1],4.37 G/DL
same,ALKALINE PHOSPHATASE,[1],416.33 u/L
same,ASPARTATE AMINOTRANSFERASE,[1],88.33 u/L
same,BLOOD UREA NITROGEN,[1],18.67 mg/dL
same,CARBON DIOXIDE,[1],22.67 mmol/L
same,CHLORIDE,[1],102.67 MEQ/L
same,CHOLESTEROL,[1],64.33 mg/dL
same,CREATINE PHOSPHOKINASE,[1],328 u/L
same,CREATININE,[1],0.25 mg/dL
same,GLUCOSE,[1],194.33 mg/dL
same,LACTATE DEHYDROGENASE,[1],167.67 u/L
same,LIPASE,[1],9 u/L
same,PHOSPHORUS,[1],12.53 mg/dL
same,POTASSIUM,[1],6.26 MEQ/L
same,SODIUM,[1],143.3 MEQ/L
same,TOTAL BILIRUBIN,[1],0.17 mg/dL
same,TOTAL PROTEIN,[1],6.13 G/DL
same,URIC ACID,[1],2.63 mg/dL
same,ABSOLUTE BASOPHIL,[2],0 CELLS/uL
same,ABSOLUTE EOSINOPHIL,[2],155.67 CELLS/uL
same,ABSOLUTE LYMPHOCYTE,[2],12828.67 CELLS/uL
same,ABSOLUTE MONOCYTE,[2],0 CELLS/uL
same,ABSOLUTE SEGMENTED NEUTROPHIL,[2],1649 CELLS/uL
same,BASOPHIL,[2],0%
same,EOSINOPHIL,[2],1%
same,ERYTHROCYTE COUNT,[2],5.48 x10E6/uL
same,HEMATOCRIT,[2],34.93%
same,HEMOGLOBIN,[2],13.23 G/DL
same,LEUKOCYTE COUNT,[2],14.63 x10E3/uL
same,LYMPHOCYTE,[2],88.33%
same,MEAN CORPUSCULAR HEMOGLOBIN,[2],24.13 pg
same,MEAN CORPUSCULAR HEMOGLOBIN CONCENTRATION,[2],37.9 G/DL
same,MEAN CORPUSCULAR VOLUME,[2],63.7 fL
same,MONOCYTE,[2],0%
same,NEUTROPHIL,[2],10.67%
same,NUCLEATED RED BLOOD CELLS,[2],0 /100WBC
same,PLATELET COUNT,[2],1178.33 x10E3/uL
same,ALANINE AMINOTRANSFERASE,[2],50.67 u/L
same,ALBUMIN,[2],4.3 G/DL
same,ALKALINE PHOSPHATASE,[2],369.33 u/L
same,ASPARTATE AMINOTRANSFERASE,[2],74.67 u/L
same,BLOOD UREA NITROGEN,[2],14 mg/dL
same,CARBON DIOXIDE,[2],26.67 mmol/L
same,CHLORIDE,[2],100.33 MEQ/L
same,CHOLESTEROL,[2],67.67 mg/dL
same,CREATINE PHOSPHOKINASE,[2],382.33 u/L
same,CREATININE,[2],0.15 mg/dL
same,GLUCOSE,[2],154 mg/dL
same,LACTATE DEHYDROGENASE,[2],99 u/L
same,LIPASE,[2],9 u/L
same,PHOSPHORUS,[2],12.53 mg/dL
same,POTASSIUM,[2],6.1 MEQ/L
same,SODIUM,[2],145.07 MEQ/L
same,TOTAL BILIRUBIN,[2],0.2 mg/dL
same,TOTAL PROTEIN,[2],5.93 G/DL
same,URIC ACID,[2],1.47 mg/dL
same,ABSOLUTE BASOPHIL,[3],0 CELLS/uL
same,ABSOLUTE EOSINOPHIL,[3],124.33 CELLS/uL
same,ABSOLUTE LYMPHOCYTE,[3],12652.67 CELLS/uL
same,ABSOLUTE MONOCYTE,[3],0 CELLS/uL
same,ABSOLUTE SEGMENTED NEUTROPHIL,[3],1356.33 CELLS/uL
same,BASOPHIL,[3],0%
same,EOSINOPHIL,[3],1%
same,ERYTHROCYTE COUNT,[3],5.72 x10E6/uL
same,HEMATOCRIT,[3],37.43%
same,HEMOGLOBIN,[3],14.2 G/DL
same,LEUKOCYTE COUNT,[3],14.13 x10E3/uL
same,LYMPHOCYTE,[3],89.67%
same,MEAN CORPUSCULAR HEMOGLOBIN,[3],24.83 pg
same,MEAN CORPUSCULAR HEMOGLOBIN CONCENTRATION,[3],37.93 G/DL
same,MEAN CORPUSCULAR VOLUME,[3],65.4 fL
same,MONOCYTE,[3],0%
same,NEUTROPHIL,[3],9.33%
same,NUCLEATED RED BLOOD CELLS,[3],0 /100WBC
same,PLATELET COUNT,[3],1132 x10E3/uL
same,ALANINE AMINOTRANSFERASE,[3],46.67 u/L
same,ALBUMIN,[3],4.47 G/DL
same,ALKALINE PHOSPHATASE,[3],355.33 u/L
same,ASPARTATE AMINOTRANSFERASE,[3],67.33 u/L
same,BLOOD UREA NITROGEN,[3],15 mg/dL
same,CARBON DIOXIDE,[3],26.67 mmol/L
same,CHLORIDE,[3],101 MEQ/L
same,CHOLESTEROL,[3],59 mg/dL
same,CREATINE PHOSPHOKINASE,[3],203.33 u/L
same,CREATININE,[3],0.17 mg/dL
same,GLUCOSE,[3],169.67 mg/dL
same,LACTATE DEHYDROGENASE,[3],99.33 u/L
same,LIPASE,[3],9 u/L
same,PHOSPHORUS,[3],12.5 mg/dL
same,POTASSIUM,[3],7.1 MEQ/L
same,SODIUM,[3],145.87 MEQ/L
same,TOTAL BILIRUBIN,[3],0.2 mg/dL
same,TOTAL PROTEIN,[3],6.37 G/DL
same,URIC ACID,[3],1.77 mg/dL
